Reference: patent US9382295B2, “Cyclic depsipeptide compounds and their uses” (Cypralis Limited, priority 2012, dated 2016)
Converted amounts (≈) assume the structure as drawn. Like-named read-outs stand apart in the source and are kept apart here. Numbered stars: 1 amine (or outer) side, 2 acyl side, 3 side chain; on linkers, the order of the positions; unused ones are H or OH. Square brackets hold non-standard residues; d marks the D form. Peptide text beside a SMILES is read from it. X2 = C[C@H](CCCc1cccc(N2CCOCC2)n1)[C@@H](O)[C@H](C(=O)[*:2])N(C)[*:1]; X5 = C[C@H](CCN1CCS(=O)(=O)CC1)[C@@H](O)[C@H](C(=O)[*:2])N(C)[*:1]; X3 = C[C@H](CCN1CC2CCC(C1)O2)[C@@H](O)[C@H](C(=O)[*:2])N(C)[*:1]; X1 = Cc1cccc(CCC[C@@H](C)[C@@H](O)[C@H](C(=O)[*:2])N(C)[*:1])n1; X4 = C[C@H](C/C=C/c1ncccn1)[C@@H](O)[C@H](C(=O)[*:2])N(C)[*:1]; d(aThr) = C[C@@H](O)[C@@H](N)C(=O)O; NMeL = CN[C@@H](CC(C)C)C(=O)O; dNMeL = CN[C@H](CC(C)C)C(=O)O; dNMeV = CN[C@@H](C(=O)O)C(C)C; Hiv = CC(C)[C@H](O)C(=O)O; Sar = CNCC(=O)O

Key:
cyclophilin A (Cyp A) = target: T1, cyclophilin A (Cyp A) (Homo sapiens, UniProt P62937); assay: Protease-free PPIase assay, cyclophilin A; type: biochemical
T1 construct: purchased Sigma C3805
In short: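 Protease-free cis-trans isomerisation: 2 nM recombinant human cyclophilin A with 60 μM succinimide-peptide substrate in 35 mM HEPES pH 7.8 plus DTT, at 10.0 °C, max 0.5% DMSO. Absorbance at 330 nm was fitted to first-order kinetics, background subtracted, and catalytic rates versus inhibitor concentration gave Ki.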

cyclophilin D (Cyp D) = cyclophilin D (Cyp D) (Homo sapiens, UniProt P30405); assay: Protease-free PPIase assay, cyclophilin D; type: biochemical
In short: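 Cis-trans isomerization of a succinimide-peptide substrate (60 µM final) by 2 nM enzyme was followed at 330 nm in 35 mM HEPES pH 7.8 with 50 µM DTT, stirred at 10.0 °C, DMSO ≤0.5%. First-order rate constants minus background were fitted against inhibitor concentration to give Ki.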

[1] = target: T2, calcineurin/cyclophilin A (Homo sapiens, UniProt P62937+P63098+Q08209); assay: Calcineurin phosphatase (CaN) assay in the presence of Cyp A; type: biochemical; conditions: inhibitor in 1:1 complex with Cyp A; read-out: CaN + CypA (IC50 in the calcineurin/cyclophilin A assay)
T2 construct: purchased Enzo Life Sciences (calcineurin, calmodulin); Sigma (CypA) BML-AK804; C3805
From the text: **Calcineurin Phosphatase (CaN) Assay The calcineurin phosphatase assay is a means for estimating the immunosuppressive potential of a test compound. Calcineurin is a serine-threonine protein phosphatase that on activation dephosphorylates members of the nuclear factor of activated T cells (NFAT), which are important in T lymphocyte activation. […] To investigate the immunosuppressive potential of exemplary compounds of Formula 1, which are novel cycloundecadepsipeptide compounds, their ability to inhibit calcineurin activity was measured in the presence of Cyp A. The CaN assay kit used is based on a colorimetric assay for measuring calcineurin phosphatase activity, and it is commercially available (Enzo Life Sciences and Calbiochem). Calmodulin is also required for calcineurin activity and RH phosphopeptide is used as an efficient peptide substrate for calcineurin. […] The detection of free phosphate released is based on the classic Malachite green assay. Enzo Life Sciences CaN Assay Kit: BML-AK804 2× assay buffer: 100 mM Tris, pH7.5, 200 mM NaCl, 12 mM MgCl2, 1 mM DTT, 0.05% NP-40, 1 mM CaCl2 Calmodulin (Human, Recombinant): was thawed on ice, diluted 1:50 with 2× assay buffer, and then stored on ice. Calcineurin: was thawed quickly, stored on ice immediately, diluted 1:12.5 with 1× assay buffer, and then stored on ice. R-II Substrate: 915 μL ultrapure water (UPW) was added to the 1.5 mg vial substrate to give a final concentration of 0.75 mM. Inhibitors: 2.5 mM inhibitor in 100% DMSO. Cyp A: recombinant human CypA (Sigma C3805), 1 mg/ml; Recombinant 6-his tagged CypA prepared by the Univ. of Edinburgh was also used. […] Inhibitor dilutions: inhibitor compounds were diluted in UPW in polypropylene low-binding 96 well plates at 5x the final assay concentration. For samples ‘without Cyp A’, a 4-point dilution series of the inhibitor was prepared in duplicate to obtain a final assay concentration of 10, 1, 0.1 and 0.01 μM. […] Cs A inhibitor controls were also prepared to obtain a final concentration of 10 μM Cs A with and without 10 μM Cyp A. Assay Setup: using the half area 96 well plates supplied with the kit, 10 μl UPW was added to duplicate wells to provide the non-inhibited control. 10 μl of the inhibitor or the inhibitor/Cyp A complex was added to the appropriate sample wells. 25 μl of the 2× assay buffer with CaM was added to all wells, then 5 μl of CaN was added to all wells (40 U per well final concentration) except duplicate ‘no calcineurin blank’ wells to which 5 μL 1× assay buffer was added. […] The reaction was started by the addition of 10 μl RII-peptide (0.15 mM final concentration). The reaction was allowed to proceed at 30° C. for a time period in which the reaction is linear for about 60 minutes. The reaction was then terminated by adding 100 μl of the Malachite Green reagent. […] The data were analyzed by subtracting ‘no Calcineurin blank’ from all the absorbance readings and plotting the background corrected absorbances against Log10 inhibitor concentration. A sigmoidal-dose response curve was fitted to the data using GraphPad Prism Software. […] It exerts its immunosuppressive activity by binding to cyclophilin A to form a complex, which then binds to calcineurin and thereby inhibits calcineurin activity.

[2] = Water solubility assay (pH 7.8 buffer); type: physicochemical
In short: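 DMSO stocks were diluted into 35 mM HEPES pH 7.8 to final 0–100 μM with 1% DMSO, in triplicate. Plates were shaken 18 h at 25 °C, then precipitation was detected as increased absorbance at 650 nm. Values give the concentration (μM) at which the compound remains in solution.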

T2 sequence (P63098 whole entry, other chains not shown): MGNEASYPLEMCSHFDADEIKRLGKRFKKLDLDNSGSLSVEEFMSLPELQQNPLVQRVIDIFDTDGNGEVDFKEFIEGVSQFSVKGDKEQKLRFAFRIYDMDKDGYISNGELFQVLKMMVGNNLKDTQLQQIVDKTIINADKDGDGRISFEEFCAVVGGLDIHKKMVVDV
T2 sequence (P62937 whole entry, other chains not shown): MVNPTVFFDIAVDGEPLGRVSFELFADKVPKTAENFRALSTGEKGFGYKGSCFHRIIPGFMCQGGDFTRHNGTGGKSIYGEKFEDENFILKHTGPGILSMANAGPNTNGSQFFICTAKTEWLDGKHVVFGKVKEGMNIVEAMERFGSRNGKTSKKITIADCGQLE
cyclophilin D (Cyp D), sequence (P30405 30-207): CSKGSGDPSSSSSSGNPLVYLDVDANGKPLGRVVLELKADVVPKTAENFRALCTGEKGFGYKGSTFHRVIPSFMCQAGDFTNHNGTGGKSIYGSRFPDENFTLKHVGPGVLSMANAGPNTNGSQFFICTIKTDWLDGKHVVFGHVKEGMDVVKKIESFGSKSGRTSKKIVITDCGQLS
T1 sequence (P62937 whole entry): as the sequence (P62937 whole entry, other chains not shown) above

| Structure (SMILES) | Ki (cyclophilin A (Cyp A)) [µM] | Ki (cyclophilin D (Cyp D)) [µM] | IC50 [1] [µM] | solubility at 18 h ([2]; pH 7.8) [µM] | Ki (cyclophilin A (Cyp A); protease-free PPIase assay, class symbols, read-out: CypA Ki) [µM] | Ki (cyclophilin D (Cyp D); protease-free PPIase assay, class symbols, read-out: CypD Ki) [µM] | solubility at 18 h ([2]; 35 mM HEPES buffer, 35 mM HEPES pH 7.8, 1% DMSO, 25° C., 18 h, concentration at which compound remains in solution, read-out: Solubility) [µM] |
| --- | --- | --- | --- | --- | --- | --- | --- |
| CC(C)C[C@@H]1C(=O)N[C@H](CC(C)C)C(=O)N(C)[C@H](C(C)C)C(=O)N(C)[C@H]([C@H](O)[C@H](C)C/C=C/c2ncccn2)C(=O)N[C@H]([C@@H](C)O)C(=O)N(C)CC(=O)N(C)[C@@H](CC(C)C)C(=O)N[C@H](CC(C)C)C(=O)N(C)[C@H](CC(C)C)C(=O)N[C@H](C)C(=O)O[C@@H](C(C)C)C(=O)N1C [Example 15, cyclo-{(3R,4R,5S)-4-(hydroxy)-3-methyl-5-(methylamino)-1-(pyrimidin-2-yl)-hept-1-enoic acid-Thr-Sar-MeLeu-Leu-MeLeu-Ala-D-Hiv-MeLeu-Leu-MeVal}] (cyclo([Hiv][dNMeL][dL][dNMeV][X4][d(aThr)][Sar][NMeL][dL][dNMeL][dA])) | 0.001 to 0.025 | 0.001 to 0.025 | > 1 | 10 to 25 (≈ 13.1 to 32.8 µg/mL) |  |  |  |
| Cc1cccc(CCC[C@@H](C)[C@@H](O)[C@@H]2C(=O)N[C@H]([C@@H](C)O)C(=O)N(C)CC(=O)N(C)[C@@H](CC(C)C)C(=O)N[C@H](CC(C)C)C(=O)N(C)[C@H](CC(C)C)C(=O)N[C@H](C)C(=O)O[C@@H](C(C)C)C(=O)N(C)[C@H](CC(C)C)C(=O)N[C@H](CC(C)C)C(=O)N(C)[C@H](C(C)C)C(=O)N2C)n1 [Example 17] (cyclo([Hiv][dNMeL][dL][dNMeV][X1][d(aThr)][Sar][NMeL][dL][dNMeL][dA])) | 0.001 to 0.025 | 0.001 to 0.025 | > 1 | 10 to 25 (≈ 13.3 to 33.2 µg/mL) |  |  |  |
| CC(C)C[C@@H]1C(=O)N[C@H](CC(C)C)C(=O)N(C)[C@H](C(C)C)C(=O)N(C)[C@H]([C@H](O)[C@H](C)CCCc2cccc(N3CCOCC3)n2)C(=O)N[C@H]([C@@H](C)O)C(=O)N(C)CC(=O)N(C)[C@@H](CC(C)C)C(=O)N[C@H](CC(C)C)C(=O)N(C)[C@H](CC(C)C)C(=O)N[C@H](C)C(=O)O[C@@H](C(C)C)C(=O)N1C [Example 20, cyclo-[(3R,4R,5S)-4-(hydroxy)-3-methyl-5-(methylamino)-1-(6-morpholin-4-yl-pyridin-2-yl)-heptanoic acid-Thr-Sar-MeLeu-Leu-MeLeu-Ala-D-Hiv-MeLeu-Leu-MeVal]] (cyclo([Hiv][dNMeL][dL][dNMeV][X2][d(aThr)][Sar][NMeL][dL][dNMeL][dA])) |  |  | > 5 |  | 0.001 to 0.025 | 0.001 to 0.025 | 10 to 25 (≈ 14 to 34.9 µg/mL) |
| CC(C)C[C@@H]1C(=O)N[C@H](CC(C)C)C(=O)N(C)[C@H](C(C)C)C(=O)N(C)[C@H]([C@H](O)[C@H](C)CCN2CC3CCC(C2)O3)C(=O)N[C@H]([C@@H](C)O)C(=O)N(C)CC(=O)N(C)[C@@H](CC(C)C)C(=O)N[C@H](CC(C)C)C(=O)N(C)[C@H](CC(C)C)C(=O)N[C@H](C)C(=O)O[C@@H](C(C)C)C(=O)N1C [Example 22, cyclo-[(3R,4R,5S)-4-(hydroxy)-3-methyl-5-(methylamino)-1-N-(8-oxa-3-aza-bicyclo[3.2.1]octane)-hexanoic acid-Thr-Sar-MeLeu-Leu-MeLeu-Ala-D-Hiv-MeLeu-Leu-MeVal]] (cyclo([Hiv][dNMeL][dL][dNMeV][X3][d(aThr)][Sar][NMeL][dL][dNMeL][dA])) | 0.001 to 0.025 | 0.001 to 0.025 | > 10 | 25 to 50 (≈ 33.3 to 66.6 µg/mL) |  |  |  |
| CC(C)C[C@@H]1C(=O)N[C@H](CC(C)C)C(=O)N(C)[C@H](C(C)C)C(=O)N(C)[C@H]([C@H](O)[C@H](C)CCN2CCS(=O)(=O)CC2)C(=O)N[C@H]([C@@H](C)O)C(=O)N(C)CC(=O)N(C)[C@@H](CC(C)C)C(=O)N[C@H](CC(C)C)C(=O)N(C)[C@H](CC(C)C)C(=O)N[C@H](C)C(=O)O[C@@H](C(C)C)C(=O)N1C [Example 23, cyclo-[(3R,4R,5S)-4-(hydroxy)-3-methyl-5-(methylamino)-1-N-(thiomorpholine 1,1-dioxide)-hexanoic acid-Thr-Sar-MeLeu-Leu-MeLeu-Ala-D-Hiv-MeLeu-Leu-MeVal]] (cyclo([Hiv][dNMeL][dL][dNMeV][X5][d(aThr)][Sar][NMeL][dL][dNMeL][dA])) | 0.001 to 0.025 | 0.001 to 0.025 | > 10 | 75 to 100 (≈ 102 to 135 µg/mL) |  |  |  |
